As a reminder, the EC50 is the concentration at which the effect is half-maximal.

Results on 24 compounds are retold here after patent US20110172244A1 (IRM LLC, priority 2008, published 2011).

The assay has as its target T1, human GPR119 (Homo sapiens, UniProt Q8TDV5).
T1 construct: expressed in transfected cells
T1 sequence (Q8TDV5 1-335): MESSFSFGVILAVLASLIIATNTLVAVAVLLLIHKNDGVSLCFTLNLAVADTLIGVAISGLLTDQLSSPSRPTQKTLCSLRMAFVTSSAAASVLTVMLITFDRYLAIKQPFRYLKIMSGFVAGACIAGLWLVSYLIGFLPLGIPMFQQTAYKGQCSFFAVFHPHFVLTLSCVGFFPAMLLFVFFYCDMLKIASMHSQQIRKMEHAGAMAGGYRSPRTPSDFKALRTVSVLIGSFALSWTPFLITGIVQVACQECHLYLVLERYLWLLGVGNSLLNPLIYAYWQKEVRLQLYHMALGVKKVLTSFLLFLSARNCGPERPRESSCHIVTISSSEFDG
The assay can be described thus: Cyclic AMP assay in stable cell line (Flp-In-CHO-hGPR119, HTRF). The format is cell-based. Conditions: Flp-In-CHO-hGPR119 cells, cAMP HTRF, 1 mM IBMX, 30 minutes at 37° C.; read-out: CHO-GPR119-HTRF (3158) EC50. The method, then:
Generation of Stable Cell Line
Flp-In-CHO cells (Invitrogen, Cat. #R758-07) are maintained in Ham's F12 medium supplemented with 10% fetal bovine serum, 1% antibiotic mixture and 2 mM L-glutamine. The cells are transfected with a DNA mixture containing human GPR119 in pcDNA5/FRT vector and the pOG44 vector (1:9) using Fugene6 (Roche), according to the manufacturer's instruction. After 48 hours, the medium is changed to medium supplemented with 400 μg/ml hygromycin B to initiate the selection of stably transfected cells.
Cyclic AMP Assay in Stable Cell Line
To test the activity of compounds of the invention, Flp-In-CHO-hGPR119 cells are harvested and resuspended in DMEM plus 3% lipid-depleted fetal bovine serum. Forth μl of cells are plated in 384 well plates at a density of 15,000 cells/well. IBMX (3-isobutyl-1-methyl-xanthine) is added to the cells to a final concentration of 1 mM, followed by the addition of 500 nl of the compound to be tested. The cells are incubated at 37° C. for 30 minutes. Equal volume (20 μl) of the HTRF reagents, anti-cAMP-Cryptate and cAMP-XL665, are added to the cells. The plates are incubated at room temperature for 1 hour and read on a HTRF reader according to the manufacturer's instruction.
On the technique in general: In TR-FRET formats the signal depends on donor and acceptor labels being close together.

Regarding `O=C(c1[nH]c2ccccc2c1S(=O)(=O)c1ccc(Cl)cc1)N1CCC(CCc2ccccc2)CC1` [Example A7, (3-(4-chlorophenylsulfonyl)-1H-indol-2-yl)(4-phenethylpiperidin-1-yl)methanone], the EC50 came to 0.018 µM.
The result for `O=C(c1[nH]c2ccccc2c1S(=O)(=O)Cc1ccccc1)N1CCC(Cc2ccccc2)CC1` [Example B2, (4-benzylpiperidin-1-yl)(3-benzylsulfonyl-1H-indol-2-yl)methanone] reads 0.21 µM; that for `O=C(c1[nH]c2ccccc2c1Sc1ccccc1)N1CCC(Cc2ccccc2)CC1` [Example C1, (4-Benzylpiperidin-1-yl)(3-(phenylthio)-1H-indol-2-yl)methanone], 0.454 µM.
As to `O=C(c1[nH]c2ccc(F)cc2c1S(=O)(=O)c1ccc(Cl)cc1)N1CCC(Cc2ccccc2)CC1` [Example A1, (4-benzylpiperidin-1-yl)(3-(4-chlorophenylsulfonyl)-5-fluoro-1H-indol-2-yl)methanone], the EC50 turned out to be 0.012 µM.
Turning to `O=C(c1[nH]c2ccccc2c1S(=O)(=O)c1ccc(Cl)cc1)N1CCN(Cc2ccc(Cl)cc2)CC1` [Example A5, (4-(4-chlorobenzyl)piperazin-1-yl)(3-(4-chlorophenylsulfonyl)-1H-indol-2-yl)methanone], the EC50 stood at 0.017 µM.
The result for `O=C(c1[nH]c2c(F)cccc2c1S(=O)(=O)c1ccc(Cl)cc1)N1CCC(Cc2ccccc2)CC1` [Example B1, (4-benzylpiperidin-1-yl)(3-(4-chlorophenylsulfonyl)-7-fluoro-1H-indol-2-yl)methanone] reads 0.022 µM; that for `O=C(c1[nH]c2ccccc2c1S(=O)(=O)c1ccc(Cl)cc1)N1CCC(Oc2ccc(C(F)(F)F)cc2)CC1` [Example A4, (3-(4-chlorophenylsulfonyl)-1H-indol-2-yl)(4-(4-(trifluoromethyl)phenoxy)piperidin-1-yl)methanone], 0.01 µM.
`O=C(c1[nH]c2ccccc2c1SC1CCCCC1)N1CCC(Cc2ccccc2)CC1` [Example B3, (4-benzylpiperidin-1-yl)(3-(cyclohexylthio)-1H-indol-2-yl)methanone]: the EC50 was determined as 0.755 µM.
On to `Cc1ccc(SC2CCN(C(=O)c3[nH]c4ccccc4c3S(=O)(=O)c3ccc(Cl)cc3)CC2)cc1` [Example A6, (3-(4-chlorophenylsulfonyl)-1H-indol-2-yl)(4-(p-tolylthio)piperidin-1-yl)methanone], for which the EC50 is 0.018 µM.
In the case of `Cc1ccc(OC2CCN(C(=O)c3[nH]c4ccccc4c3S(=O)(=O)c3ccc(Cl)cc3)CC2)cc1` [Example A3, (3-(4-chlorophenylsulfonyl)-1H-indol-2-yl)(4-(p-tolyloxy)piperidin-1-yl)methanone], the EC50 was 0.009 µM.
For the compound `O=C(c1[nH]c2ccccc2c1S(=O)(=O)c1ccc(Cl)cc1)N1CCN(Cc2ccncc2)CC1` [Example A22, (3-(4-chlorophenylsulfonyl)-1H-indol-2-yl)(4-(pyridin-4-ylmethyl)piperazin-1-yl)methanone], the EC50 came to 0.435 µM.
In the case of `CN(Cc1ccccc1)C1CCN(C(=O)c2[nH]c3ccccc3c2S(=O)(=O)c2ccc(Cl)cc2)CC1` [Example A19, (4-(benzyl(methyl)amino)piperidin-1-yl)(3-(4-chlorophenylsulfonyl)-1H-indol-2-yl)methanone], the EC50 amounted to 0.533 µM.
In the case of `O=C(c1[nH]c2ccccc2c1S(=O)(=O)c1ccc(Cl)cc1)N1CCCCC1` [Example A24, (3-(4-chlorophenylsulfonyl)-1H-indol-2-yl)(piperidin-1-yl)methanone], the 50% effective concentration (EC50) stood at 0.574 µM.
With `O=C(c1[nH]c2ccccc2c1S(=O)(=O)c1ccc(Cl)cc1)N1CCN(Cc2ccc3c(c2)OCO3)CC1` [Example A12, (4-(benzo[d][1,3]dioxol-5-ylmethyl)piperazin-1-yl)(3-(4-chlorophenylsulfonyl)-1H-indol-2-yl)methanone], the EC50 turned out to be 0.04 µM.
With `O=C(NCCCCc1ccccc1)c1[nH]c2ccccc2c1S(=O)(=O)c1ccc(Cl)cc1` [Example A23, 3-(4-chlorophenylsulfonyl)-N-(4-phenylbutyl)-1H-indole-2-carboxamide] the figure was 0.396 µM.
In the case of `O=C(c1[nH]c2ccccc2c1S(=O)(=O)C1CCCCC1)N1CCC(Cc2ccccc2)CC1` [Example B4], the 50% effective concentration (EC50) amounted to 0.149 µM.
With `Cn1c(C(=O)N2CCC(Cc3ccccc3)CC2)c(S(=O)(=O)c2ccc(Cl)cc2)c2ccccc21` [Example B5, (4-Benzylpiperidin-1-yl)(3-(4-chlorophenylsulfonyl)-1-methyl-1H-indol-2-yl)methanone] the figure was 0.169 µM; with `O=C(c1[nH]c2ccccc2c1S(=O)(=O)c1ccc(Cl)cc1)N1CCN(CC2CCCCC2)CC1` [Example A11, (3-(4-chlorophenylsulfonyl)-1H-indol-2-yl)(4-(cyclohexylmethyl)piperazin-1-yl)methanone], 0.032 µM.
The result for `O=C(c1oc2ccccc2c1S(=O)(=O)c1ccc(Cl)cc1)N1CCN(Cc2ccccc2)CC1` [Example A30, (4-benzylpiperazin-1-yl)(3-(4-chlorophenylsulfonyl)benzofuran-2-yl)methanone] reads 0.187 µM; that for `O=C(c1[nH]c2ccccc2c1S(=O)(=O)c1ccc(Cl)cc1)N1CCN(Cc2c(F)cccc2Cl)CC1` [Example A2, (4-(2-chloro-6-fluorobenzyl)piperazin-1-yl)(3-(4-chlorophenylsulfonyl)-1H-indol-2-yl)methanone], 0.007 µM; that for `O=C(c1[nH]c2ccccc2c1Sc1ccc(Cl)cc1)N1CCC(Cc2ccccc2)CC1` [Example C2, (4-benzylpiperidin-1-yl)(3-(4-chlorophenylthio)-1H-indol-2-yl)methanone], 0.18 µM.
Regarding `CN(CCOc1ccccc1)C(=O)c1[nH]c2ccccc2c1S(=O)(=O)c1ccc(Cl)cc1` [Example A20, 3-(4-chlorophenylsulfonyl)-N-methyl-N-(2-phenoxyethyl)-1H-indole-2-carboxamide], the EC50 was found to be 0.192 µM.
As for `O=C(c1oc2ccccc2c1S(=O)(=O)c1ccc(Cl)cc1)N1CCC(Oc2ccc(C(F)(F)F)cc2)CC1` [Example A29, (3-(4-Chlorophenylsulfonyl)benzofuran-2-yl)(4-(4-(trifluoromethyl)phenoxy)piperidin-1-yl)methanone], the EC50 amounted to 0.054 µM.
In the case of `O=C(c1[nH]c2ccccc2c1S(=O)(=O)CCc1ccccc1)N1CCC(Cc2ccccc2)CC1` [Example B11, (4-benzylpiperidin-1-yl)(3-(phenethylsulfonyl)-1H-indol-2-yl)methanone], the EC50 came out at 0.042 µM.
